Experimental data published in ChEMBL document CHEMBL1944557 (Bioorg Med Chem, 2012).

What was measured:
[1] = target: 5-hydroxytryptamine receptor 2A (Homo sapiens, UniProt P28223); test: Binding affinity at 5-HT2A receptor by radioligand displacement assay
D(3) dopamine receptor = D(3) dopamine receptor (Homo sapiens, UniProt P35462); test: Displacement of [3H]-N-methylspiperone from dopamine D3 receptor expressed in […] MES-23.5
D(2) dopamine receptor = D(2) dopamine receptor (Homo sapiens, UniProt P14416); test: Displacement of [3H]-N-methylspiperone from dopamine D2 receptor expressed in […] MES-23.5 cells; type: cell-based
Chain of D(2) dopamine receptor (P14416 whole entry): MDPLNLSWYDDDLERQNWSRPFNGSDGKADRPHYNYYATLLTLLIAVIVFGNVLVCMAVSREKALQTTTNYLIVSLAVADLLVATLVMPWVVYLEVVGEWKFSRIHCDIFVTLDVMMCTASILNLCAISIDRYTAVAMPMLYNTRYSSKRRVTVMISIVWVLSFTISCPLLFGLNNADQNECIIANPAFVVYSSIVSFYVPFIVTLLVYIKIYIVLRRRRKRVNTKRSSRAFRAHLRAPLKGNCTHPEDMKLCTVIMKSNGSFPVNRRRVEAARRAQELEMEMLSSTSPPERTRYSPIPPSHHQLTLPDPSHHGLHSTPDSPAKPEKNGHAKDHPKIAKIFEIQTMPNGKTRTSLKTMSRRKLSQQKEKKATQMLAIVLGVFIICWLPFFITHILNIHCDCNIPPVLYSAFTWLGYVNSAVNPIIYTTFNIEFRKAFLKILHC

[2] = target: T1, 5-hydroxytryptamine receptor 2C (Homo sapiens, UniProt P28335); test: Binding affinity at 5-HT2C receptor by radioligand displacement assay
T1 sequence (P28335 whole entry): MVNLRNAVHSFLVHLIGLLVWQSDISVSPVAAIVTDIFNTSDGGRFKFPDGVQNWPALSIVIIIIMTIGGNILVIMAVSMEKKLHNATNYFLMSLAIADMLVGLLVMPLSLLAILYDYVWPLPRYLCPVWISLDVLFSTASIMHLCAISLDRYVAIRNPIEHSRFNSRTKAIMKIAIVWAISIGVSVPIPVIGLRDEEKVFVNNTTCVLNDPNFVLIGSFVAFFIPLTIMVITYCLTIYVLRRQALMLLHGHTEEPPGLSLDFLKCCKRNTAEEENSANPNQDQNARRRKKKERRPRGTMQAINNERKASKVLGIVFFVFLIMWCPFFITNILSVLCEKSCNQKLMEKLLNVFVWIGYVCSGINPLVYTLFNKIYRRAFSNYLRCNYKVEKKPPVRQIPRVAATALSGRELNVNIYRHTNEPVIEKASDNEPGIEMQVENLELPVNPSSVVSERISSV

D(4) dopamine receptor = target: T2, D(4) dopamine receptor (Rattus norvegicus, UniProt P30729); test: Displacement of [3H]-N-methylspiperone from rat dopamine D4 receptor
T2 sequence (P30729 whole entry): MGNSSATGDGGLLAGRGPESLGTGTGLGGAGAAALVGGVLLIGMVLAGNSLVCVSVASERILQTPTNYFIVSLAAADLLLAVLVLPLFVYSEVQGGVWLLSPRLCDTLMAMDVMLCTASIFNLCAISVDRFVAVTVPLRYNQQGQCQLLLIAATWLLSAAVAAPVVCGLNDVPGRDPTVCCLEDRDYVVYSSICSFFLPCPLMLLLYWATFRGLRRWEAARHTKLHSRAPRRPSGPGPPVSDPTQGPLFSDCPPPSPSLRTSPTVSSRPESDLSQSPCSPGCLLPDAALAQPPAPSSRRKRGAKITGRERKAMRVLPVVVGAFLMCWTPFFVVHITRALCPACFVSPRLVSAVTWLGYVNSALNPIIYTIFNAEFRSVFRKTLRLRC

Histamine H1 receptor = Histamine H1 receptor (Homo sapiens, UniProt P35367); test: Displacement of [3H]-Pyrilamine from human histamine H1 receptor by liquid scintillation counter
Chain of Histamine H1 receptor (P35367 whole entry): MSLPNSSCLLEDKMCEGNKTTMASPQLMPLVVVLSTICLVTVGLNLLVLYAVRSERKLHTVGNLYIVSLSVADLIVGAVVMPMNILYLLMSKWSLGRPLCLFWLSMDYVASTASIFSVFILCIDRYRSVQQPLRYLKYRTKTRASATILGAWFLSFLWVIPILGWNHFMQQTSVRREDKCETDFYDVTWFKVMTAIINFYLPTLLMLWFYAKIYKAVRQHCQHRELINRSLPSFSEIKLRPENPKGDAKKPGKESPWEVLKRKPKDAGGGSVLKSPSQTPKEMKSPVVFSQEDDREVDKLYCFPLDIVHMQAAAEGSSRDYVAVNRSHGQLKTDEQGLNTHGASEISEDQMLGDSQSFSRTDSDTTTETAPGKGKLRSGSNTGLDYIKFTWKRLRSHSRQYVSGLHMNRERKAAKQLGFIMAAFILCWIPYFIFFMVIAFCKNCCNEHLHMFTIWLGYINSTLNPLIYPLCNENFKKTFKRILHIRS

[3] = target: T3, 5-hydroxytryptamine receptor 1A (Homo sapiens, UniProt P08908); test: Displacement of [3H]8-OH-DPAT from 5-HT1A receptor expressed in CHO cells after 20 mins by liquid scintillation counting; type: cell-based
T3 sequence (P08908 whole entry): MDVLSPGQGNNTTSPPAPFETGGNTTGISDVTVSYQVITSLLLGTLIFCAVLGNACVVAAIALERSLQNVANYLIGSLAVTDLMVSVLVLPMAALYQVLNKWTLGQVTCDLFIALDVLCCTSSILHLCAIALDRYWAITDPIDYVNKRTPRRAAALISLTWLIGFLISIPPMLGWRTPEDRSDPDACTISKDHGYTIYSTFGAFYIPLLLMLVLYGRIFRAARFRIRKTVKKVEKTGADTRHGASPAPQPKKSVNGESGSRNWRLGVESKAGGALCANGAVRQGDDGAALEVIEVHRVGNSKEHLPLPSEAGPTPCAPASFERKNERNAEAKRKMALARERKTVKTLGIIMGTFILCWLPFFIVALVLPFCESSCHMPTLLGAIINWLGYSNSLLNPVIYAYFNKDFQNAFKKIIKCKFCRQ

Chain of D(3) dopamine receptor (P35462 whole entry): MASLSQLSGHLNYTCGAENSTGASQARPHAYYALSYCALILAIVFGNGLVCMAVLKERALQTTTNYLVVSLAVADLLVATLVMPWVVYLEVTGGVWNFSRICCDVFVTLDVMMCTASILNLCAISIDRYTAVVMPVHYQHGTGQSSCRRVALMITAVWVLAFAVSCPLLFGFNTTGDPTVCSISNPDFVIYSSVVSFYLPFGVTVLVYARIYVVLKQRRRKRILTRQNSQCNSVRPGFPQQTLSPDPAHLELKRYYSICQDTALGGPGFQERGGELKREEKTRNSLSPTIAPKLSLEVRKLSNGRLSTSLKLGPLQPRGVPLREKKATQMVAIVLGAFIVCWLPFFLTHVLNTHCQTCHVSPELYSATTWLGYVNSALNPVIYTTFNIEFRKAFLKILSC
Chain of 5-hydroxytryptamine receptor 2A (P28223 whole entry): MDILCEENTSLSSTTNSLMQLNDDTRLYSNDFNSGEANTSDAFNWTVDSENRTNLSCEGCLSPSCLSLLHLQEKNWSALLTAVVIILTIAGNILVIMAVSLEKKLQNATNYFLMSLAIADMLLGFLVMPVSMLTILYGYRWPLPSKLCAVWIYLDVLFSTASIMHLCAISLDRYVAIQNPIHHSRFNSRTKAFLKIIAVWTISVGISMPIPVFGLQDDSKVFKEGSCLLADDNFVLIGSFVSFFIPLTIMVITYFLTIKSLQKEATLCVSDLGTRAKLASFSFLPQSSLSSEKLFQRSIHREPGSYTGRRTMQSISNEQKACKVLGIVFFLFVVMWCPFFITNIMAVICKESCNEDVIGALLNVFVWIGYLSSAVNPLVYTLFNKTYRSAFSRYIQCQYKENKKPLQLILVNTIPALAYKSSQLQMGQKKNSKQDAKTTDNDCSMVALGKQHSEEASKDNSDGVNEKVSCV

Compound | Ki ([1]; read-out: Ki) | Ki (D(3) dopamine receptor) | Ki (D(2) dopamine receptor; read-out: Ki) | Ki ([2]; read-out: Ki) | Ki (D(4) dopamine receptor) | Ki (Histamine H1 receptor; read-out: Ki) | Ki ([3]; read-out: Ki) | Ki [2] | Ki [1] | Ki ([3]; cho) | Ki (Histamine H1 receptor) | Ki (D(2) dopamine receptor)
Fc1ccc(CCCCN2CCCN(c3ccc(Cl)cc3)CC2)cc1 | 510 nM | 3040 nM | 139 nM | 4100 nM | 123 nM | 1250 nM |  |  |  |  |  | 
O=C(CCCCN1CCCN(c2ccc(Cl)cc2)CC1)c1nc2ccccc2s1 | 1000 nM | 1050 nM | 1980 nM | 5920 nM | 1210 nM | 129 nM | 495 nM |  |  |  |  | 
Fc1ccc(SCCCN2CCCN(c3ccc(Cl)cc3)CC2)cc1 | 163 nM |  |  | 2530 nM |  | 800 nM |  |  |  |  |  | 
Fc1ccc(OCCCN2CCCN(c3ccc(Cl)cc3)CC2)cc1 | 567 nM |  |  | > 10000 nM |  | 509 nM |  |  |  |  |  | 
OC1(c2ccc(Cl)cc2)C[C@H]2CC[C@@H](C1)N2CCCOc1ccc(F)cc1 (stereo partly specified) |  |  |  |  |  |  |  | Not Active |  |  |  | 
O=C(CCCCN1[C@@H]2CC[C@H]1CC(O)(c1ccc(Cl)cc1)C2)c1nc2ccccc2s1 (stereo partly specified) |  |  |  |  |  |  |  | Not Active | Not Active | Not Active |  | 
Clc1ccc(N2CCCN(CCCCc3nc4ccccc4s3)CC2)cc1 | 159 nM | 152 nM | 259 nM | 1420 nM | 28.6 nM | 61 nM | 263 nM |  |  |  |  | 
Clc1ccc(N2CCCN(Cc3nc4ccccc4s3)CC2)cc1 |  |  |  |  |  |  |  | Not Active | Not Active | Not Active | Not Active | 
Clc1ccc(N2CCCN(CCCc3nc4ccccc4s3)CC2)cc1 | 696 nM | 863 nM |  |  | 431 nM | 665 nM | 216 nM |  |  |  |  | Not Active
O=C(CCCN1CCCN(c2ccc(Cl)cc2)CC1)c1nc2ccccc2s1 | 1040 nM | 777 nM |  |  | 126 nM |  |  | Not Active |  | Not Active |  | Not Active
